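96-well plates; 48 h exposure; 5 concentrations. Endpoints by linear interpolation between flanking doses. Not reached: highest tested concentration assigned. GI50 is the concentration that inhibits growth by half. TGI is the concentration that stops growth completely.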
What was measured:
Assay in all cases: NCI anticancer screen, dose series, 48 h
786-0 renal = test system: 786-0 renal
DU-145 prostate = test system: DU-145 prostate
HCC-2998 colon = test system: HCC-2998 colon
HCT-116 colon = test system: HCT-116 colon
HT29 colon = test system: HT29 colon
MCF7 breast = test system: MCF7 breast
RPMI-8226 leukemia = test system: RPMI-8226 leukemia
RXF 393 renal = test system: RXF 393 renal
SK-MEL-28 melanoma = test system: SK-MEL-28 melanoma
U251 CNS = test system: U251 CNS
UACC-257 melanoma = test system: UACC-257 melanoma

Compound | TGI (786-0 renal) | TGI (DU-145 prostate) | TGI (HCC-2998 colon) | TGI (HCT-116 colon) | TGI (HT29 colon) | TGI (MCF7 breast) | TGI (RPMI-8226 leukemia) | TGI (RXF 393 renal) | TGI (SK-MEL-28 melanoma) | TGI (U251 CNS) | TGI (UACC-257 melanoma) | GI50 (DU-145 prostate) | GI50 (HCC-2998 colon) | GI50 (HCT-116 colon) | GI50 (HT29 colon) | GI50 (MCF7 breast) | GI50 (RXF 393 renal) | GI50 (SK-MEL-28 melanoma) | GI50 (U251 CNS) | GI50 (UACC-257 melanoma)
O=c1c2c3c(sc2nc2n1N=CN(c1ccc(Cl)cc1)C2)CCCC3 | > 100 µM | > 100 µM | 72 µM | > 100 µM | > 100 µM | > 100 µM | > 100 µM | > 100 µM | > 100 µM | > 100 µM | > 100 µM | – | – | – | – | – | – | – | – | –
COC(=O)C(Cc1c[nH]c2ccccc12)NP(=O)(O)OCC1OC(n2cc(F)c(=O)[nH]c2=O)CC1O (configuration not stated) | > 100 µM | > 100 µM | > 100 µM | > 100 µM | > 100 µM | > 100 µM | > 100 µM | > 100 µM | > 100 µM | > 100 µM | > 100 µM | – | – | – | – | – | – | – | – | –
O=C(NN1C(=O)c2ccccc2C1=O)c1ccccc1Nc1ccccc1C(=O)NN1C(=O)c2ccccc2C1=O | > 100 µM | > 100 µM | > 100 µM | > 100 µM | > 100 µM | > 100 µM | > 100 µM | > 100 µM | > 100 µM | > 100 µM | > 100 µM | – | – | – | – | – | – | – | – | –
COC(=O)c1c(C(=O)OC)c(C(c2ccccc2)c2ccccc2)n(-c2ccccc2)c1Cl | > 10 µM | > 10 µM | > 10 µM | > 10 µM | > 10 µM | > 10 µM | > 10 µM | > 10 µM | > 10 µM | > 10 µM | > 10 µM | – | – | – | – | – | – | – | – | –
O=C(CCCN1CC=C(n2c(=O)[nH]c3ccccc32)CC1)c1cccs1 | > 100 µM | > 100 µM | > 100 µM | > 100 µM | > 100 µM | > 100 µM | > 100 µM | > 100 µM | > 100 µM | > 100 µM | > 100 µM | – | – | – | – | – | – | – | – | –
COc1c(O)cc2c(c1O)C1O[C@H](CO)C(O)[C@H](O)[C@H]1OC2=O (some centres not stated) | > 100 µM | > 100 µM | > 100 µM | > 100 µM | > 100 µM | > 100 µM | > 100 µM | > 100 µM | > 100 µM | > 100 µM | > 100 µM | – | – | – | – | – | – | – | – | –
CCO/C(O)=C(/C(=N)N1CCCC1)C(=O)Nc1ccc(Cl)cc1 | > 100 µM | > 100 µM | > 100 µM | > 100 µM | > 100 µM | > 100 µM | > 100 µM | > 100 µM | > 100 µM | > 100 µM | > 100 µM | – | – | – | – | – | – | – | – | –
CC(CCC(=O)O)[C@H]1CCC2[C@H]3C(CC(=O)[C@@]21C)[C@@]1(C)CCC(O)C[C@H]1C[C@@H]3O (some centres not stated) | > 100 µM | > 100 µM | > 100 µM | > 100 µM | > 100 µM | > 100 µM | > 100 µM | > 100 µM | > 100 µM | > 100 µM | > 100 µM | – | – | – | – | – | – | – | – | –
COc1ccccc1CNCc1nc2ccccc2[nH]1 | > 100 µM | > 100 µM | > 100 µM | > 100 µM | > 100 µM | > 100 µM | > 100 µM | > 100 µM | > 100 µM | > 100 µM | > 100 µM | – | – | – | – | – | – | – | – | –
N#CC(C#N)=C1CCCCc2ccc([N+](=O)[O-])cc21 | 33 µM | > 100 µM | > 100 µM | 54.8 µM | > 100 µM | > 100 µM | 87.5 µM | > 100 µM | > 100 µM | > 100 µM | > 100 µM | – | – | – | – | – | – | – | – | –
CC(C)(C)C(=O)Nc1cccc(-c2ccc[nH]2)n1 | > 100 µM | > 100 µM | > 100 µM | > 100 µM | > 100 µM | > 100 µM | 25.5 µM | > 100 µM | > 100 µM | > 100 µM | > 100 µM | – | – | – | – | – | – | – | – | –
CN(C)CCN1C(=O)c2ccccc2C1(O)c1ccc(Cl)cc1 (configuration not stated) | > 100 µM | > 100 µM | > 100 µM | > 100 µM | > 100 µM | > 100 µM | > 100 µM | 77.5 µM | > 100 µM | > 100 µM | 63.9 µM | – | – | – | – | – | – | – | – | –
C=CC(c1ccccc1)C1(O)c2cccc(O)c2C(=O)c2c(O)cccc21 (configuration not stated) | 31.1 µM | 28.8 µM | 22.9 µM | 24.7 µM | 25.3 µM | 37.8 µM | 54.8 µM | 29.1 µM | 41.4 µM | 24.5 µM | 40.2 µM | – | – | – | – | – | – | – | – | –
C=CC1(c2ccc(Br)cc2)OCCCO1 | > 100 µM | > 100 µM | > 100 µM | > 100 µM | > 100 µM | > 100 µM | > 100 µM | > 100 µM | > 100 µM | > 100 µM | > 100 µM | – | – | – | – | – | – | – | – | –
CC(=C(C(=O)O)C(=O)O)c1cc(-c2cccs2)cc(-c2ccc(Cl)cc2)c1O | 32.2 µM | 30.6 µM | 38 µM | 29.1 µM | 40.5 µM | 17.9 µM | 15.6 µM | 29.6 µM | 36.3 µM | 29.3 µM | 33.5 µM | – | – | – | – | – | – | – | – | –
O=C1OC2(c3ccc(O)cc3Oc3cc(O)ccc32)c2c1c(-c1ccccc1)c(-c1ccccc1)c(-c1ccccc1)c2-c1ccccc1 | 75.6 µM | 35.2 µM | 30 µM | 57.3 µM | 40.4 µM | 31.1 µM | 70.2 µM | 67.2 µM | 44.6 µM | 31.5 µM | 78.3 µM | – | – | – | – | – | – | – | – | –
CCn1c(SCC(=O)NNC(=S)Nc2ccc(F)cc2)nc2ccccc2c1=O | > 100 µM | > 100 µM | > 100 µM | > 100 µM | > 100 µM | > 100 µM | > 100 µM | > 100 µM | > 100 µM | > 100 µM | > 100 µM | – | – | – | – | – | – | – | – | –
COc1ccc(NC(C)=O)cc1N1C(=O)/C(=C\c2cc(OC)c(OC)c(OC)c2)S(=O)(=O)C1c1ccccc1 (configuration not stated) | > 100 µM | > 100 µM | > 100 µM | > 100 µM | > 100 µM | > 100 µM | > 100 µM | > 100 µM | > 100 µM | > 100 µM | > 100 µM | – | – | – | – | – | – | – | – | –
O=c1[nH]c2ccsc2c(=O)n1COCc1ccccc1 | > 100 µM | > 100 µM | > 100 µM | > 100 µM | > 100 µM | > 100 µM | > 100 µM | > 100 µM | > 100 µM | > 100 µM | > 100 µM | – | – | – | – | – | – | – | – | –
COC(=O)/C(C#N)=C(\Nc1ccccc1)N1CCCCC1 | > 100 µM | > 100 µM | > 100 µM | > 100 µM | > 100 µM | > 100 µM | > 100 µM | > 100 µM | > 100 µM | > 100 µM | > 100 µM | – | – | – | – | – | – | – | – | –
CCOn1cc(C2=C(c3c[nH]c4ccccc34)C(=O)NC2=O)c2ccccc21 | 15.7 µM | 16.9 µM | < 0.01 µM | 4.03 µM | 12.8 µM | 1.03 µM | 5.28 µM | – | 25.3 µM | 19.5 µM | 20.5 µM | 163 nM | < 10 nM | < 21.7 nM | < 22.4 nM | < 14.9 nM | < 32.5 nM | 2050 nM | 488 nM | 859 nM
NC(=O)NC(=O)c1ccc(NC(=O)CBr)cc1 | 0.919 µM | 6.92 µM | 25.5 µM | 2.29 µM | 3.42 µM | 4.9 µM | 3.59 µM | 3.32 µM | 13.1 µM | 2.25 µM | 5.29 µM | – | – | – | – | – | – | – | – | –
COc1cc(/C=N/NC2=NCCCN2)ccc1O | > 100 µM | > 100 µM | > 100 µM | > 100 µM | > 100 µM | > 100 µM | > 100 µM | > 100 µM | > 100 µM | > 100 µM | > 100 µM | – | – | – | – | – | – | – | – | –
CC(C)=CCC[C@@H](C)C1=C(Nc2ccccc2)C(O)=C(C)C(=O)C1=O | > 48.5 µM | 28.2 µM | > 41.4 µM | 16.9 µM | 15.3 µM | 22.5 µM | > 100 µM | 21.3 µM | 30.9 µM | > 56.1 µM | 41.9 µM | – | – | – | – | – | – | – | – | –
CCCCCNC1=CC(=O)c2ccccc2C1=O | 38.9 µM | > 100 µM | > 100 µM | > 61.7 µM | > 100 µM | > 100 µM | > 100 µM | 47.3 µM | > 100 µM | 34 µM | > 100 µM | – | – | – | – | – | – | – | – | –
C#C[C@]1(O)CC[C@H]2[C@@H]3CCC4=C/C(=N\OCCN5CCCC5)CC[C@]4(C)[C@H]3CC[C@@]21C | 24.4 µM | 41 µM | 34.5 µM | 28.7 µM | 29.7 µM | 21.5 µM | 13.2 µM | > 39.9 µM | 44.6 µM | > 49.4 µM | 22.9 µM | – | – | – | – | – | – | – | – | –
Cc1nc2ccc(N=NN(C)C)cc2[nH]1 | > 100 µM | > 100 µM | > 100 µM | > 100 µM | > 100 µM | > 100 µM | > 100 µM | > 100 µM | > 100 µM | > 100 µM | > 100 µM | – | – | – | – | – | – | – | – | –
O=Cc1ccc2c(c1)CC1(C2)Cc2ccc(C=O)cc2C1 | 32 µM | > 100 µM | > 91.8 µM | 19.6 µM | 53.6 µM | > 70 µM | 22.1 µM | > 25.4 µM | 59.1 µM | 41.7 µM | 40.5 µM | – | – | – | – | – | – | – | – | –
COc1cc(C2S/C(=C/c3ccccc3)C(=O)N2c2ccc([N+](=O)[O-])cc2)cc(OC)c1OC (configuration not stated) | > 100 µM | > 89.1 µM | > 100 µM | > 100 µM | > 100 µM | > 100 µM | > 100 µM | > 100 µM | > 100 µM | > 100 µM | > 100 µM | – | – | – | – | – | – | – | – | –

— PubChem BioAssay (NCI)
